In US20140163026A1, “8-ETHYL-6-(ARYL)PYRIDO[2,3-D]PYRIMIDIN-7(8H)-ONES FOR THE TREATMENT OF NERVOUS SYSTEM DISORDERS AND CANCER” (Afraxis Holdings, Inc., priority 2011, published 2014):

How the values were obtained:
Format in all cases: biochemical
[1] = target: PAK1 (Homo sapiens, UniProt Q13153); assay: In vitro PAK inhibition assay (SelectScreen, Ser/Thr 19 peptide)
Protocol: (§1) Compounds are screened in 1% DMSO (final) in the well. For 10 point titrations, 3-fold serial dilutions are conducted.
(§2) All Peptide/Kinase Mixtures are diluted to a 2× working concentration in the appropriate Kinase Buffer
The 2×PAK1/Ser/Thr 19 mixture is prepared in 50 mM HEPES pH 7.5, 0.01% BRIJ-35, 10 mM MgCl2, 1 mM EGTA.
(§3) This control yields 100% cleaved peptide in the Development Reaction.
(§4) The 100% Phosphorylation Control, which consists of a synthetically phosphorylated peptide of the same sequence as the peptide substrate, is designed to allow for the calculation of percent phosphorylation.
(§5) This control is designed to produce a 10-50%* phosphorylated peptide in the Kinase Reaction.
(§6) A known inhibitor control standard curve, 10 point titration, is run for each individual kinase on the same plate as the kinase to ensure the kinase is inhibited within an expected IC50 range previously determined.
(§7) Add the following solutions to a well in a 384-well plate: • 2.5 μL of 4× Test Compound OR (100 nL 100× Test Compound plus 2.4 μL kinase buffer) • 5 μL of 2× Peptide/Kinase (PAK) Mixture • 2.5 μL of 4×ATP Solution • 2. Shake the plate for 30-seconds • 3. Incubate the PAK Kinase Reaction at room temperature for 60-minutes • 4. Add 5 μL of Development Reagent Solution to each well • 5. Shake the plate for 30-seconds • 6. Incubate the Development Reaction for 60-minutes • 7. Determine the fluorescence using a fluorescence plate reader • 8. Analyze the fluorescence data
(§8) SelectScreen® Kinase Profiling Service uses XLfit from IDBS.
(§9) The representative IC50 value with a known inhibitor for each kinase was determined at the ATP bin nearest to the ATP Km app.

[2] = target: PAK2 (PAK65) (Homo sapiens, UniProt Q13177); assay: In vitro PAK inhibition assay (SelectScreen, Ser/Thr 20 peptide)
Protocol: as §1, §2
The 2×PAK2 (PAK65)/Ser/Thr 20 mixture is prepared in 50 mM HEPES pH 7.5, 0.01% BRIJ-35, 10 mM MgCl2, 1 mM EGTA. The final 10 μL Kinase Reaction consists of 0.29-6 ng PAK2 (PAK65) and 2 μM Ser/Thr 20 in 50 mM HEPES pH 7.5, 0.01% BRIJ-35, 10 mM MgCl2, 1 mM EGTA.
as §3, §4, §5, §6, §7, §8, §9

[3] = target: PAK3 (Homo sapiens, UniProt O75914); assay: as above
Protocol: as §1, §2
The 2×PAK3/Ser/Thr 20 mixture is prepared in 50 mM HEPES pH 7.5, 0.01% BRIJ-35, 10 mM MgCl2, 1 mM EGTA.
as §3, §4, §5, §6, §7, §8, §9

[4] = target: PAK4 (Homo sapiens, UniProt O96013); assay: as above
Protocol: as §1, §2
The 2×PAK4/Ser/Thr 20 mixture is prepared in 50 mM HEPES pH 7.5, 0.01% BRIJ-35, 10 mM MgCl2, 1 mM EGTA. The final 10 μL Kinase Reaction consists of 0.1-0.75 ng PAK4 and 2 μM Ser/Thr 20 in 50 mM HEPES pH 7.5, 0.01% BRIJ-35, 10 mM MgCl2, 1 mM EGTA. After the 1 hour Kinase Reaction incubation, 5 μL of a 1:256 dilution of Development Reagent A is added.
as §3, §4
The minimum Emission Ratio in a screen is established by the 0% Inhibition Control, which contains active kinase. This control is designed to produce a 10-50%* phosphorylated peptide in the Kinase Reaction.
as §6
as §7, with “Bar-coded Corning, low volume NBS, black 384-well plate (Corning Cat. #3676) • 1. Add the” for “Add the”
SelectScreen® Kinase Profiling Service uses XLfit from IDBS. The dose response curve is curve fit to model number 205 (sigmoidal dose-response model).
The table below provides specifications and data around each kinase. The representative IC50 value with a known inhibitor for each kinase was determined at the ATP bin nearest to the ATP Km app.

PAK3, sequence (O75914 whole entry): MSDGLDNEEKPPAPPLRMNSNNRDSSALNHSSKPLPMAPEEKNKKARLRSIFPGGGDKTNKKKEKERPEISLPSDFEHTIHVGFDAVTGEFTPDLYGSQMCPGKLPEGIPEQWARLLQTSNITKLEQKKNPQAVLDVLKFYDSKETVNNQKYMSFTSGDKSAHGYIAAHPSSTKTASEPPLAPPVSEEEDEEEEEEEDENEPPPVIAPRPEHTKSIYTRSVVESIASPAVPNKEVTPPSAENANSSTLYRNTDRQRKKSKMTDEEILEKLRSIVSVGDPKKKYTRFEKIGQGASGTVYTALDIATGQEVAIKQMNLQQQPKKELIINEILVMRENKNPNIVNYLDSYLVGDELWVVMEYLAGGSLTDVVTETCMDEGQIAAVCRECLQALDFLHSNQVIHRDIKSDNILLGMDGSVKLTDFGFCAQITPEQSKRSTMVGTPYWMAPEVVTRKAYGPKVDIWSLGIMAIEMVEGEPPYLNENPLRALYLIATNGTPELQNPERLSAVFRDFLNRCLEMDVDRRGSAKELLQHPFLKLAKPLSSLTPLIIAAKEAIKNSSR
PAK2 (PAK65), sequence (Q13177 whole entry): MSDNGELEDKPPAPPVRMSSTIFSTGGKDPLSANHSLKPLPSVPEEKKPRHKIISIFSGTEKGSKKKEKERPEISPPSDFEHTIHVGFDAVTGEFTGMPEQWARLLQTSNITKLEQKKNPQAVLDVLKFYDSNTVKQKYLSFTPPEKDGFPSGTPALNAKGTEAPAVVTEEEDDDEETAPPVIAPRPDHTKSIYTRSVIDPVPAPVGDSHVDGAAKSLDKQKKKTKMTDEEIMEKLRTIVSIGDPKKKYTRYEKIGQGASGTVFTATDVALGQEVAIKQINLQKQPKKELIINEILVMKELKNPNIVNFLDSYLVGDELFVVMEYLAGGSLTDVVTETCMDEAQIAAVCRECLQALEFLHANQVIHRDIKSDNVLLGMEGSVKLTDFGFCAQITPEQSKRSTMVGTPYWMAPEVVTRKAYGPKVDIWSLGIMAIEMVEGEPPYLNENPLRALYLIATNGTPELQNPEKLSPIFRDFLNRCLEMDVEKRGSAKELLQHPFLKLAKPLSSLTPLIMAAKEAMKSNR
PAK4, sequence (O96013 whole entry): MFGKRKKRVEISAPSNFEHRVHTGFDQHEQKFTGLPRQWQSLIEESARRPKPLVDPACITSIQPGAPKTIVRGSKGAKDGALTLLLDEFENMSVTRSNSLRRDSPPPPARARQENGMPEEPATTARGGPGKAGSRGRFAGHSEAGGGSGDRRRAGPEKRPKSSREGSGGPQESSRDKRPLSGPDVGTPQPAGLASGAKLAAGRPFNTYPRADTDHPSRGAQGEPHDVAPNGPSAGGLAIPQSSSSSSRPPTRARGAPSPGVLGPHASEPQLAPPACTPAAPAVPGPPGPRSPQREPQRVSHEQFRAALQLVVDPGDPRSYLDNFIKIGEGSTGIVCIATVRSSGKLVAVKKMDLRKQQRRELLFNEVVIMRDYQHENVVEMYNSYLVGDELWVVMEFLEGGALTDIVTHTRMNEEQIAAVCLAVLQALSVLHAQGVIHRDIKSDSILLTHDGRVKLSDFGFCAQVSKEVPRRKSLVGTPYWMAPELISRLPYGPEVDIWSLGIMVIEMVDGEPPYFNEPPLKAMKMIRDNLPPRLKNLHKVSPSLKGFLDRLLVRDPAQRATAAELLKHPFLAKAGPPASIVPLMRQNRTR
PAK1, sequence (Q13153 whole entry): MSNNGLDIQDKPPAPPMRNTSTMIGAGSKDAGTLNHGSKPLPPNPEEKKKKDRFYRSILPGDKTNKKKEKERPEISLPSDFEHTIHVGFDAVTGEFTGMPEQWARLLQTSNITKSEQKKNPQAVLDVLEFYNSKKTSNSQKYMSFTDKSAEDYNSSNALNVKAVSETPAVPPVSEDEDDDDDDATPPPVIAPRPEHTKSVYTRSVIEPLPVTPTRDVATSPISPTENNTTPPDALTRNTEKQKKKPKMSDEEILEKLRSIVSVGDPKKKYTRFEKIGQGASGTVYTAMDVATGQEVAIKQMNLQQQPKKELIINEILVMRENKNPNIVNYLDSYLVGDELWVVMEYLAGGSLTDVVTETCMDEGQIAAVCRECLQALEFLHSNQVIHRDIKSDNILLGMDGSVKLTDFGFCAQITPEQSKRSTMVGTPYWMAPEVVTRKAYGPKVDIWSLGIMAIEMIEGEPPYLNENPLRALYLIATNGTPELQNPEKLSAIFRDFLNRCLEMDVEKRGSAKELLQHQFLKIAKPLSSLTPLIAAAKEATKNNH

| SMILES | IC50 [1] [nM] | IC50 [2] [nM] | IC50 [3] [nM] | IC50 [4] [nM] |
| --- | --- | --- | --- | --- |
| CCn1c(=O)c(-c2ccc(-c3cncnc3)cc2Cl)cc2cnc(Nc3ccc(N4CCN(C)CC4)cc3)nc21 | < 50 | < 50 | < 50 | 500 to 5000 |
| CCn1c(=O)c(-c2ccc(-c3cccnc3)cc2Cl)cc2cnc(Nc3ccc(N4CCN(C)CC4)cc3)nc21 | < 50 | < 50 | < 50 | 500 to 5000 |
| CCN1CCC(c2ccc(Nc3ncc4cc(-c5ccc(-c6cccnc6)cc5Cl)c(=O)n(CC)c4n3)cc2F)CC1 | < 50 | < 50 | < 50 | 500 to 5000 |
| CCn1c(=O)c(-c2ccc(-c3cccnc3C)cc2Cl)cc2cnc(Nc3ccc(C4CCNCC4)c(F)c3)nc21 | < 50 | < 50 | 50 to 500 | 500 to 5000 |
| CCn1c(=O)c(-c2ccc(-c3cccnc3)cc2Cl)cc2cnc(Nc3ccc(CN(C)C)cc3)nc21 | < 50 | < 50 | < 50 | 500 to 5000 |
| CCn1c(=O)c(-c2ccc(-c3cccnc3C)cc2Cl)cc2cnc(Nc3ccc(C4=CCNCC4)cc3)nc21 | < 50 | < 50 | < 50 | 500 to 5000 |
| CCn1c(=O)c(-c2ccc(-c3cccnc3F)cc2Cl)cc2cnc(Nc3ccc(C4=CCNCC4)cc3)nc21 | < 50 | < 50 | < 50 | 50 to 500 |
| CCn1c(=O)c(-c2ccc(-c3cnc(C)s3)cc2Cl)cc2cnc(Nc3ccc(C4=CCNCC4)cc3)nc21 | < 50 | < 50 | < 50 | 500 to 5000 |
| CCn1c(=O)c(-c2ccc(-c3noc(C)n3)cc2Cl)cc2cnc(Nc3ccc(C4CCN5CCCC5C4)cc3)nc21 (centres unmarked) | < 50 | < 50 | < 50 | ≥ 5000 |
| CCn1c(=O)c(-c2ccc(-c3cccnc3F)cc2Cl)cc2cnc(Nc3ccc(C4=CCN(C)CC4)cc3)nc21 | < 50 | < 50 | < 50 | 500 to 5000 |
| CCn1c(=O)c(-c2ccc(-c3noc(C)n3)cc2Cl)cc2cnc(Nc3ccc(C4=CCNCC4)cc3)nc21 | < 50 | < 50 | < 50 | 500 to 5000 |
| CCN1CCC(c2ccc(Nc3ncc4cc(-c5ccc(-c6ccnc(C(=O)NC)c6)cc5Cl)c(=O)n(CC)c4n3)cc2)CC1 | 50 to 500 | 50 to 500 | 50 to 500 | 500 to 5000 |
| CCn1c(=O)c(-c2ccc(-c3noc(C)n3)cc2Cl)cc2cnc(Nc3ccc(C4=CCN(C)CC4)cc3)nc21 | < 50 | < 50 | < 50 | 500 to 5000 |
| CCn1c(=O)c(-c2ccc(-c3cccnc3C)cc2Cl)cc2cnc(Nc3ccc(C4CCN5CCCC5C4)cc3)nc21 (centres unmarked) | < 50 | 50 to 500 | 50 to 500 | ≥ 5000 |
| CCn1c(=O)c(-c2ccc(-c3ccc(C)nc3F)cc2Cl)cc2cnc(Nc3ccc(C4CCN(C(C)C)CC4)cc3)nc21 | 50 to 500 | < 50 | 50 to 500 | 500 to 5000 |
| CCN1CCC(c2ccc(Nc3ncc4cc(-c5ccc(-c6ccc(C)nc6F)cc5Cl)c(=O)n(CC)c4n3)cc2)CC1 | 50 to 500 | 50 to 500 | 50 to 500 | 500 to 5000 |
| CCn1c(=O)c(-c2ccc(-c3cccnc3F)cc2Cl)cc2cnc(Nc3ccc(C4CCN(C(C)C)CC4)cc3)nc21 | < 50 | < 50 | < 50 | 500 to 5000 |
| CCN1CCC(c2ccc(Nc3ncc4cc(-c5ccc(-c6ccc(F)nc6C)cc5Cl)c(=O)n(CC)c4n3)cc2)CC1 | < 50 | 50 to 500 | 50 to 500 | ≥ 5000 |
| CCN1CCC(c2ccc(Nc3ncc4cc(-c5ccc(-c6cccnc6F)cc5Cl)c(=O)n(CC)c4n3)cc2)CC1 | < 50 | < 50 | < 50 | 50 to 500 |
| CCn1c(=O)c(-c2ccc(-c3ccc(F)nc3C)cc2Cl)cc2cnc(Nc3ccc(C4CCNCC4)cc3)nc21 | < 50 | 50 to 500 | 50 to 500 | ≥ 5000 |
| CCn1c(=O)c(-c2ccc(-c3ccc(C)nc3F)cc2Cl)cc2cnc(Nc3ccc(C4CCNCC4)c(F)c3)nc21 | 50 to 500 | 50 to 500 | 50 to 500 | 500 to 5000 |

Now from value to molecule:

| IC50 [1] [nM] | IC50 [2] [nM] | IC50 [3] [nM] | IC50 [4] [nM] | SMILES |
| --- | --- | --- | --- | --- |
| < 50 | < 50 | < 50 | ≥ 5000 | CCn1c(=O)c(-c2ccc(-c3ccncc3)cc2Cl)cc2cnc(Nc3ccc(N4CCN(C)CC4)cc3)nc21 |
| < 50 | < 50 | 50 to 500 | 500 to 5000 | CCn1c(=O)c(-c2ccc(-c3ccc(C)nc3)cc2Cl)cc2cnc(Nc3ccc(C4CCNCC4)cc3)nc21 |
| < 50 | 50 to 500 | 50 to 500 | 500 to 5000 | CCn1c(=O)c(-c2ccc(-c3ccnc(C)c3)cc2Cl)cc2cnc(Nc3ccc(C4CCNCC4)cc3)nc21 |
| < 50 | 50 to 500 | 50 to 500 | ≥ 5000 | Cc1ncccc1-c1ccc(-c2cc3cnc(Nc4ccc(C5CCNCC5)cc4)nc3n(C)c2=O)c(Cl)c1 |
| < 50 | < 50 | 50 to 500 | ≥ 5000 | CCn1c(=O)c(-c2ccc(-c3ccc(C)nc3)cc2Cl)cc2cnc(Nc3ccc(C4CCN(C(C)C)CC4)cc3)nc21 |
| < 50 | < 50 | 50 to 500 | 500 to 5000 | CCn1c(=O)c(-c2ccc(-c3ccc(C)nc3)cc2Cl)cc2cnc(Nc3ccc(C4CCNCC4)c(F)c3)nc21 |
| 50 to 500 | 50 to 500 | 50 to 500 | ≥ 5000 | CCn1c(=O)c(-c2ccc(-c3ccnc(C(=O)NC)c3)cc2Cl)cc2cnc(Nc3ccc(CCN(C)C)cc3)nc21 |
| 50 to 500 | 50 to 500 | > 5000 | ≥ 5000 | CCn1c(=O)c(-c2ccc(-c3ccnc(C(=O)NC)c3)cc2Cl)cc2cnc(Nc3ccc(C4CCNCC4)c(F)c3)nc21 |
| < 50 | < 50 | 50 to 500 | 500 to 5000 | CCn1c(=O)c(-c2ccc(-c3ccc(C)nc3F)cc2Cl)cc2cnc(Nc3ccc(C4CCNCC4)cc3)nc21 |
| < 50 | 50 to 500 | 50 to 500 | ≥ 5000 | CCn1c(=O)c(-c2ccc(-c3cccnc3C)cc2Cl)cc2cnc(Nc3ccc(C4CCN(C(C)C)CC4)cc3)nc21 |
| < 50 | < 50 | 50 to 500 | 500 to 5000 | CCn1c(=O)c(-c2ccc(-c3ccc(C)nc3)cc2Cl)cc2cnc(Nc3ccc(CCN(C)C)cc3)nc21 |
| < 50 | < 50 | < 50 | 500 to 5000 | CCn1c(=O)c(-c2ccc(-c3ccc(C)nc3F)cc2Cl)cc2cnc(Nc3ccc(CCN(C)C)cc3)nc21 |
| < 50 | < 50 | 50 to 500 | ≥ 5000 | CCn1c(=O)c(-c2ccc(-c3cccnc3C)cc2Cl)cc2cnc(Nc3ccc(CCN(C)C)cc3)nc21 |
| < 50 | < 50 | < 50 | 50 to 500 | CCn1c(=O)c(-c2ccc(-c3cccnc3F)cc2Cl)cc2cnc(Nc3ccc(CCN(C)C)cc3)nc21 |
